Reference: patent US10975068B2, “6-aminopyridin-3-yl thiazoles as modulators of RORγT” (Janssen Pharmaceutica NV, priority 2016, dated 2021)
Read-outs that look alike come from different tables or passages of the source.

Columns and labels:
full-length human RORγt = full-length human RORγt (Homo sapiens (Human), UniProt P51449); assay: RORγt (full-length human) reporter assay, Conditions B or C; type: cell-based; details: for inhibition at 3 µM: at 3 μM compound concentration; for RORγt (FL) Reporter Assay B or C, % inhibition (value marked *): marked *: footnote not given
Method in brief: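 Readout is dual luciferase: firefly (GAL4-driven) normalized to DMSO-only and saturating-reference controls, then to CMV-Renilla. Full-length human RORγt fused to GAL4-DBD was transiently expressed in HEK293T; compound exposure ran overnight (16-20 h) starting 4-6 h after transfection, final FBS 1.3%, DMSO 0.1%.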

[1] = biological target: human RORγt ligand binding domain (RORγt LBD) (Homo sapiens (Human), UniProt P51449); assay: RORγt ThermoFluor® assay (thermal shift binding)
Method in brief: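 Binding was inferred from thermal stabilisation (ΔTm) of the E. coli-expressed RORγt LBD (0.065 mg/mL), monitored by 1,8-ANS (60 μM) emission at 500 nm during a 1 °C/min ramp. Buffer was Hepes 100 mM pH 7.0 with NaCl, GSH and Tween-20.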

[2] = RORγt (FL) Reporter Assay B or C, IC50
[3] = read-out: RORγt (FL) Reporter Assay B or C, % inhibition
[4] = read-out: ThermoFluor® Assay, Kd
[5] = RORγt (FL) Reporter Assay B or C, IC50 (μM), Conditions B or C
[6] = read-out: RORγt (FL) Reporter Assay B or C, IC50
[7] = Conditions B or C, read-out: RORγt (FL) Reporter Assay B or C, IC50

full-length human RORγt, sequence (P51449 other isoform, or with tags, fused parts or gaps): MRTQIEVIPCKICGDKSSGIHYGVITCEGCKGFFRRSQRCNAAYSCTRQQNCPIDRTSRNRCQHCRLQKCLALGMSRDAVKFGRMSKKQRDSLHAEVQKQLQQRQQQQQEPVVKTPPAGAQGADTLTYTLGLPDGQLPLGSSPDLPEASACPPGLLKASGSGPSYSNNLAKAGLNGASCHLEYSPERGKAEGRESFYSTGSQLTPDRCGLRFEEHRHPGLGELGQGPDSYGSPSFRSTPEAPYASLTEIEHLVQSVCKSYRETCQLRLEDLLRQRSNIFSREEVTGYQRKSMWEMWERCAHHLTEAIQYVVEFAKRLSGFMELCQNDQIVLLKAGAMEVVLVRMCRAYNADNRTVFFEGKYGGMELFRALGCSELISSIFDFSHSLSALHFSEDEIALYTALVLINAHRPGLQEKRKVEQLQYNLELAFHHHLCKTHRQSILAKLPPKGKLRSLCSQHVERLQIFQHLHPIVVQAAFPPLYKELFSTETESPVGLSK
human RORγt ligand binding domain (RORγt LBD), sequence (P51449 other isoform, or with tags, fused parts or gaps): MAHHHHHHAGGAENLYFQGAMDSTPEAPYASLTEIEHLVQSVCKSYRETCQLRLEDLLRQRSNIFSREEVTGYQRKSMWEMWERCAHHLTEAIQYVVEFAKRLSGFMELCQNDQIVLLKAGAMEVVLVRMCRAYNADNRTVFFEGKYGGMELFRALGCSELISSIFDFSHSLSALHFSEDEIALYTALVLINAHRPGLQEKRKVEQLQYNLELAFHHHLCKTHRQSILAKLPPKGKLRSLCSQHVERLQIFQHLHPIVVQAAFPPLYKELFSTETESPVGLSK

Structure (SMILES) | inhibition at 3 µM (full-length human RORγt; [3]) [%] | Kd [1, 4] [µM] | RORγt (FL) Reporter Assay B or C, % inhibition (value marked *) (full-length human RORγt; Conditions B or C) | IC50 (full-length human RORγt; [6]) [µM] | IC50 (full-length human RORγt; [7]) [µM] | also measured
C[C@@H](NC(=O)c1nc(C(=O)N2C3CCC2CC3)c(-c2cnc(N[C@@H](C3CC3)C(F)(F)F)cc2C(F)F)s1)C(C)(C)O [Example 316, 4-((1s,4s)-7-Azabicyclo[2.2.1]heptane-7-carbonyl)-5-(6-(((S)-1-cyclopropyl-2,2,2-trifluoroethyl)amino)-4-(difluoromethyl)pyridin-3-yl)-N—((R)-3-hydroxy-3-methylbutan-2-yl)thiazole-2-carboxamide] | 108 | 0.0029 | – | – | – | IC50 (full-length human RORγt; [2]): 0.032 µM
CC[C@H](Nc1cc(C(F)(F)F)c(-c2sc(C(=O)NCC(C)(C)O)nc2C(=O)N2C3CCC2CC3)cn1)C1CC1 (stereo in doubt) [Example 130] | – | – | – | – | – | RORγt (FL) Reporter Assay B or C, % inhibition (value marked ***) (full-length human RORγt; Conditions B or C, marked ***: footnote not given): 98*** %; IC50 (full-length human RORγt; [5]): 0.03 µM; Kd ([1]; ThermoFluor® Assay, Kd (μM)): 0.0016 µM
CC[C@H](Nc1cc(C(F)(F)F)c(-c2sc(C(=O)NCC(C)(C)O)nc2C(=O)N2C3CCC2CC3)cn1)C(F)(F)F [Example 101, 4-((1s,4s)-7-Azabicyclo[2.2.1]heptane-7-carbonyl)-N-(2-hydroxy-2-methylpropyl)-5-(6-(((S)-1,1,1-trifluorobutan-2-yl)amino)-4-(trifluoromethyl)pyridin-3-yl)thiazole-2-carboxamide] | – | 0.0032 | 107* % | – | – | IC50 (full-length human RORγt; [5]): 0.019 µM
C[C@H]1CCCN1C(=O)c1nc(C(=O)N[C@@H]2CCC[C@H]2O)sc1-c1cnc(NC(C)(C)C)cc1C(F)(F)F [Example 351, 5-[6-(tert-Butylamino)-4-(trifluoromethyl)-3-pyridyl]-N-[(1R,2R)-2-hydroxycyclopentyl]-4-[(2S)-2-methylpyrrolidine-1-carbonyl]thiazole-2-carboxamide] | – | 0.00015 | – | 0.008 | – | –
CC[C@H](Nc1cc(C(F)F)c(-c2sc(C(=O)N[C@H](C)C(C)(C)O)nc2C(=O)N2CC(F)(F)C[C@@H]2C)cn1)C(F)(F)F [Example 245, 4-[(2S)-4,4-Difluoro-2-methyl-pyrrolidine-1-carbonyl]-5-[4-(difluoromethyl)-6-[[(1S)-1-(trifluoromethyl)propyl]amino]-3-pyridyl]-N-[(1R)-2-hydroxy-1,2-dimethyl-propyl]thiazole-2-carboxamide] | – | 0.0016 | 98* % | – | 0.026 | –
C[C@@H](CO)NC(=O)c1nc(C(=O)N2CCC[C@@H]2C)c(-c2cnc(NC(C)(C)C)cc2C(F)(F)F)s1 [Example 362, 5-[6-(tert-Butylamino)-4-(trifluoromethyl)-3-pyridyl]-N-[(1S)-2-hydroxy-1-methyl-ethyl]-4-[(2S)-2-methylpyrrolidine-1-carbonyl]thiazole-2-carboxamide] | 99 | 0.004 | – | 0.021 | – | –
C[C@H]1CCCN1C(=O)c1nc(C(=O)NC2CN(C)C2)sc1-c1cnc(NC(C)(C)C)cc1C(F)(F)F [Example 356, 5-[6-(tert-Butylamino)-4-(trifluoromethyl)-3-pyridyl]-N-(1-methylazetidin-3-yl)-4-[(2S)-2-methylpyrrolidine-1-carbonyl]thiazole-2-carboxamide] | 94 | 0.047 | – | 0.035 | – | –
C[C@H]1CCCN1C(=O)c1nc(C(=O)NCC(O)(C(F)(F)F)C(F)(F)F)sc1-c1cnc(NC(C)(C)C)cc1C(F)F [Example 264, 5-[6-(tert-Butylamino)-4-(difluoromethyl)-3-pyridyl]-4-[(2S)-2-methylpyrrolidine-1-carbonyl]-N-[3,3,3-trifluoro-2-hydroxy-2-(trifluoromethyl)propyl]thiazole-2-carboxamide] | 112 | 0.0049 | – | 0.028 | – | –
CC[C@H](Nc1cc(C(F)(F)F)c(-c2sc(C(=O)N[C@H]3COC[C@@H]3O)nc2C(=O)N2CCC[C@@H]2C)cn1)C(F)(F)F [Example 174, N-((3S,4R)-4-Hydroxytetrahydrofuran-3-yl)-4-((2S)-2-methylpyrrolidine-1-carbonyl)-5-(4-(trifluoromethyl)-6-(((1S)-1-(trifluoromethyl)propyl)amino)-3-pyridyl)thiazole-2-carboxamide] | – | 0.0014 | 106* % | – | 0.025 | –
C[C@H]1CC(F)(F)CN1C(=O)c1nc(C(=O)NCC(C)(C)O)sc1-c1cnc(NC(C2CC2)C2CC2)cc1C(F)F [Example 177, (S)-5-(6-((Dicyclopropylmethyl)amino)-4-(difluoromethyl)pyridine-3-yl)-4-(4,4-difluoro-2-methylpyrrolidine-1-carbonyl)-N-(2-hydroxy-2-methylpropyl)thiazole-2-carboxamide] | – | 0.00097 | 117* % | – | 0.0066 | –
C[C@H](Nc1cc(C(F)(F)F)c(-c2sc(C(=O)NCC3(O)CCC3)nc2C(=O)N2CCC[C@@H]2C)cn1)C1CC1 [Example 49, 5-(6-(((S)-1-Cyclopropylethyl)amino)-4-(trifluoromethyl)pyridin-3-yl)-N-((1-hydroxycyclobutyl)methyl)-4-((S)-2-methylpyrrolidine-1-carbonyl)thiazole-2-carboxamide] | – | 0.0033 | 99* % | – | 0.0076 | –
C[C@H](Nc1cc(C(F)F)c(-c2sc(C(=O)NC3CS(=O)(=O)C3)nc2C(=O)N2CC(F)(F)C[C@@H]2C)cn1)C(F)(F)F [Example 192, 4-((S)-4,4-Difluoro-2-methylpyrrolidine-1-carbonyl)-5-(4-(difluoromethyl)-6-(((S)-1,1,1-trifluoropropan-2-yl)amino)pyridine-3-yl)-N-(1,1-dioxidothietan-3-yl)thiazole-2-carboxamide] | – | 0.0028 | 101* % | – | 0.037 | –
C[C@H]1CCCN1C(=O)c1nc(C(=O)NCC(C)(C)O)sc1-c1cnc(NC(C2CC2)C2CC2)cc1C(F)F [Example 179, (S)-5-(6-((Dicyclopropylmethyl)amino)-4-(difluoromethyl)pyridine-3-yl)-N-(2-hydroxy-2-methylpropyl)-4-(2-methylpyrrolidine-1-carbonyl)thiazole-2-carboxamide] | – | 0.0022 | 105* % | – | 0.018 | –
C[C@H]1CCCN1C(=O)c1nc(C(=O)NCc2nnn[nH]2)sc1-c1cnc(NC(C)(C)C)cc1C(F)(F)F [Example 303, (S)—N-((1H-Tetrazol-5-yl)methyl)-5-(6-(tert-butylamino)-4-(trifluoromethyl)pyridin-3-yl)-4-(2-methylpyrrolidine-1-carbonyl)thiazole-2-carboxamide] | 88 | 0.015 | – | 0.74 | – | –
C[C@H]1CCCN1C(=O)c1nc(C(=O)NCC(C)(C)O)sc1-c1cnc(NCC2(C(F)(F)F)CC2)cc1C(F)F [Example 276, 5-[4-(Difluoromethyl)-6-[[1-(trifluoromethyl)cyclopropyl]methylamino]-3-pyridyl]-N-(2-hydroxy-2-methyl-propyl)-4-[(2S)-2-methylpyrrolidine-1-carbonyl]thiazole-2-carboxamide] | – | 0.0061 | – | 0.016 | – | inhibition at 1 µM (full-length human RORγt; at 1 μM compound concentration, read-out: RORγt (FL) Reporter Assay B or C, % inhibition): 118%
C[C@H](Nc1cc(C(F)F)c(-c2sc(C(=O)N[C@H]3C[C@H](O)C3)nc2C(=O)N2C3CCC2CC3)cn1)C(F)(F)F [Example 221, 4-((1s,4s)-7-Azabicyclo[2.2.1]heptane-7-carbonyl)-5-(4-(difluoromethyl)-6-(((1S)-2,2,2-trifluoro-1-methyl-ethyl)amino)-3-pyridyl)-N-((1r,3S)-3-hydroxycyclobutyl)thiazole-2-carboxamide] | – | 0.027 | 103* % | – | 0.078 | –
CC[C@H](Nc1cc(C(F)F)c(-c2sc(C(=O)N3CC(S(C)(=O)=O)C3)nc2C(=O)N2CCC[C@@H]2C)cn1)C(F)(F)F [Example 393, [5-[4-(Difluoromethyl)-6-[[(1S)-1-(trifluoromethyl)propyl]amino]-3-pyridyl]-2-(3-methylsulfonylazetidine-1-carbonyl)thiazol-4-yl]-[(28)-2-methylpyrrolidin-1-yl]methanone] | 118 | 0.029 | – | 0.027 | – | –
C[C@H](CO)NC(=O)c1nc(C(=O)N2C3CCC2CC3)c(-c2cnc(NC(C)(C)C)cc2C(F)F)s1 [Example 427, 4-((1s,4s)-7-Azabicyclo[2.2.1]heptane-7-carbonyl)-5-[6-(tert-butylamino)-4-(difluoromethyl)-3-pyridyl]-N-[(1R)-2-hydroxy-1-methyl-ethyl]thiazole-2-carboxamide] | 113 | 0.003 | – | – | – | IC50 (full-length human RORγt; [2]): 0.003 µM
C[C@H]1CCCN1C(=O)c1nc(C(=O)NCC(C)(C)O)sc1-c1cnc(NC2(C(F)(F)F)CCC2)cc1C(F)F [Example 123, (S)-5-(4-(Difluoromethyl)-6-((1-(trifluoromethyl)cyclobutyl)amino)pyridin-3-yl)-N-(2-hydroxy-2-methylpropyl)-4-(2-methylpyrrolidine-1-carbonyl)thiazole-2-carboxamide] | – | 0.0019 | 105* % | – | 0.013 | –
